In patent publication EP0433074B1, “Method for treating cardiac malfunction” (THE GENERAL HOSPITAL CORPORATION, priority 1989, dated 1991):

Key:
[1] = test system: neonatal rat cardiac myocytes; experiment: ⁸⁶Rb⁺ influx (Na⁺ pump activity) in cultured cardiac cells; type: cell-based; conditions: ouabain 5 mM, 20 min preincubation
Description: Na⁺ pump activity was estimated in the cultured cardiac cells as the difference in ⁸⁶Rb⁺ uptake observed in the absence and presence of 5 mM ouabain, following the method of Panet et al (Panet, R., et al., J. Memb. Biol., 70:165-169 (1982)). To insure saturation binding, myocytes were preincubated for 20 minutes with HIF (2 unit/ml) or ouabain (5 mM) or both prior to addition of ⁸⁶Rb⁺ to run the 10 minute flux. Myocyte monolayers were washed with HEPES buffer solution (final concentrations, mM: NaCl 150, RbCl 5, HEPES-Tris 10 (pH7.0) , CaCl₂ 1, MgCl₂ 5, glucose 10), and the uptake initiated by covering over with 0.5 ml of same solution pre-warmed to 37°C and containing 2 uCi ⁸⁶RbCl. […] The cells were lysed with 0.6 ml of 0.1 N NaOH containing 0.1% (w/v) sodium dodecylsulfate, and the radioactivity counted in Instagel (Packard) scintillation medium.
The concentration dependence of HIF inhibition was determined by preincubating cells with HIF at 0.5 units/ml, 0.8 units/ml, 1 unit/ml, 2 units/ml and 4 units/ml concentration for 20 min. ⁸⁶RbCl (2 uCi/well) was then added to run the flux.

cardiac myocytes = experiment: Myocyte contractility (amplitude of systolic motion, beating frequency), phase contrast video motion detector; type: cell-based, rat
Description: In general, the amplitude of contraction (i.e., degree of positive inotropy) was measured in single, beating myocytes as the amplitude of systolic motion (ASM) using a phase contrast video motion detector system. The same detector system was used to measure toxicity, which is evidenced as a decrease in ASM, a change in the position of maximal relaxation (MR), and an increase in beating frequency.
(§1) Myocardial cells were isolated from ventrical fragments of the hearts of 1-day old Sprague-Dawley rats by serial trypsinizations in a Ca²⁺ and Mg²⁺-free Hanks Buffered Salt Solution (HBSS) as previously described (Yagev, S., et al., In Vitro, 20:893-898 (1984)). Trypsinized cells were decanted into HamF10 medium containing 20% serum and antibiotics and centrifuged at 1000 r.p.m. for 10 minutes. The cell pellet was resuspended in HamF10 medium containing fetal calf serum and 10% horse serum with 0.1% penicillin-streptomycin, and diluted to a concentration of 5 x 10⁵ cells/ml. For measurements of cytosolic free calcium concentration ([Ca²⁺]i), the cells were plated on rectangular glass coverslips (13 x 30 mm) and for measurements of cell contractility, plated on circular glass coverslips (12 mm), and both types of coverslips placed inside petri dishes. For measurements of ⁸⁶Rb⁺ uptake cells were plated in petri dishes (1 - 1.5 x 10⁶ cells/35mm dish). All cultures were incubated in humidified 5% CO₂, 95% air at 37°C.
Contractility, determined as amplitude of systolic cell motion (ASM), and beating frequency were measured in individual cells using a phase contrast microscope video motion detector system according to the method of Barry, et al. (Barry, W.H., et al., Circ. Res., 56:231-241 (1985)). A glass coverslip with attached cultured myocytes was placed in a chamber provided with inlet and exit ports for medium perfusion. The chamber was enclosed in a Lucite box at 37°C and placed on the stage of an inverted phase contrast microscope. The cells were covered with 1 ml medium containing HIF or ouabain. During continuous perfusion, medium bathing a cell in the center of a coverslip exchanged with a time constant of 15 seconds at a flow rate of 0.96 ml/minutes. Image was magnified using a 40x objective, and motion monitored by a low-light-level TV camera attached to the microscope and calibrated with 262 raster lines. […] The analog voltage output from the motion detector is filtered at low pass filter and calibrated to indicate actual um of motion, and the derivative is obtained electronically and recorded as velocity of motion in um/sec. […] The changes in contractility induced by ouabain or HIF were calculated in comparison with the contractility of the same cells before addition of ouabain or HIF.

[2] = test system: cultured cardiac myocytes; experiment: Cytosolic free Ca²⁺ measured with fura-2 in cultured cardiac myocytes; type: cell-based, rat; conditions: ouabain 10^-6 M, steady state, control 138±3
Description: as §1, with “For measurements of ⁸⁶Rb⁺ uptake cells were plated in petri dishes (1 - 1.5 x 10⁶ cells/35mm dish). All cultures were incubated in humidified 5% CO₂, 95% air at 37°C.” left out
Changes in [Ca²⁺] i were detected using the fluorescent probe, fura-2 (Grynkiewicz, G., et al., J. Biol. Chem., 260:3440-3450 (1985)). […] The fluorescence was continuously recorded using a PTI DeltaScan 1 spectrofluorometer. […] Values of [Ca²⁺]i were calculated from the ratio R = F₃₄₀/F₃₈₀ [formula] […] Rmax and Rmin were determined in separate experiments using digitonin to equilibrate [Ca²⁺]i with ambient [Ca²⁺] […] Background autofluorescence was measured in unloaded cells and substracted from all measurements.

[3] = test system: rat abdominal aortic rings; experiment: Vascular tension in isolated aortic rings; set-up: species or system Sprague-Dawley rats; conditions: KCl 20 mM; above resting tension of 1.5 g
Description: Experiments were conducted to determine the vasoconstrictive properties of HIF. The protocol for these experiments is described in greater detail in Example V. In general, Sprague-Dawley rats were anesthetized and the abdominal aorta surgically removed. 2 mm vascular rings were attached to a force transducer and bathed in buffer, and tension adjusted to 1.5 g. Tissue viability was documented and vasoconstrictive responses calibrated using known vasoconstrictors such as potassium chloride and norepinephrine. Blood vessels thus prepared were then tested with varing doses of HIF.
Sprague-Dawley rats weighing 250-350 grams were anesthetized with pentobarbital intraperitoneally, the abdominal aorta rapidly excised and dissected free of all loose connective tissue in cold Krebs-Henseleit bicarbonate buffer of the following composition, mM: NaCl, 118.3; KCl, 4.7; MgSo₄, 1.2; KH₂PO₄, 1.2; CaCl₂, 2.5; NaHCO₃, 25.0; Na-EDTA, 0.016; and glucose, 11.1. 2-3 mm (length) vascular rings were excised, attached to a force transducer and bathed in a water jacketed (37°C) organ chamber containing 5 ml of the above buffer gassed with 95% O₂ and 5% CO₂. […] force measurements were obtained with a Grass force displacement transducer attached to a Grass 79D polygraph DC amplifier, and recorded with a two-channel Kipp Zonen recorder. […]

| Structure (SMILES) | inhibition at 5000 µM ([1]; Rattus norvegicus, read-out: decrease of total ⁸⁶Rb⁺ uptake) [%] | total ⁸⁶Rb⁺ uptake ([1]; 10 min flux, control 810 nmol/mg protein) [nmol/mg] | activation at 0.5 µM (cardiac myocytes; Rattus norvegicus, ouabain 5x10^-7 M, read-out: ASM, % increase) [%] | inhibition at 0.5 µM (cardiac myocytes; Rattus norvegicus, ouabain 5x10^-7 M, read-out: Rate, % decrease) [%] | toxicity on contracting myocytes (decrease in ASM, elevation in position of MR, increase in beating frequency) (cardiac myocytes; ouabain 1 uM) | ASM, % increase (cardiac myocytes; ouabain 5x10^-7 M, listed as Ou) [%] | [Ca²⁺]i [2] [nM] | [Ca²⁺]i ([2]; listed as Ouabain) [nM] | Change in Tension in Rat Aorta, % increase [3] [%] |
| --- | --- | --- | --- | --- | --- | --- | --- | --- | --- |
| C[C@@H]1O[C@@H](O[C@H]2C[C@@H](O)[C@]3(CO)[C@H]4[C@H](O)C[C@]5(C)[C@@H](C6=CC(=O)OC6)CC[C@]5(O)[C@@H]4CC[C@]3(O)C2)[C@H](O)[C@H](O)[C@H]1O [ouabain] | 74 | 210 | 41 | 23 ± 2 | toxic range | 41±3 | 287 ± 15 | 287 ± 15 |  |
| [Cl-].[K+] [KCl, potassium chloride] |  |  |  |  |  |  |  |  | 20 |
